According to patent publication US10307466B2, “Composition comprising sophorolipid, physiologically active substance and oil or fat, and method for producing the same” (SARAYA CO., LTD., priority 2014, dated 2019):

Assay: Binding to phosphatidylcholine-coated silica beads (TRANSIL Intestinal Absorption Kit)
Settings: compared with the physiologically active substance alone taken as 1; for Relative amount of physiologically active substance bound to the beads, Example (sophorolipid): substance emulsified with sophorolipid; for Relative amount of physiologically active substance bound to the beads, Comparative Example (sucrose fatty acid ester): substance emulsified with sucrose fatty acid ester
Protocol: In the evaluation herein, the binding of substances to silica beads coated with a phospholipid (phosphatidylcholine) was compared. A higher binding indicates a higher cell membrane transport and a higher intestinal absorption.
An aqueous phase was prepared and the pH was adjusted with a pH adjuster to a pH value of 6. The aqueous phase and an oil phase were heated to 50 to 60° C. The aqueous phase was added to the oil phase. The mixture was stirred with a homogenizer (HG-200, As One Corporation) at a high speed of 10,000 rpm for 10 minutes to give an emulsion.
The affinity with phosphatidylcholine-coated silica beads (TRANSIL Intestinal Absorption Kit, SOVICELL GMBH) was assessed. A volume of 200 μl of PBS (phosphate buffered saline) containing the beads was added to each tube, and 20 μl of each of the compositions was added. The mixture was agitated with a test tube mixer for 12 minutes. The beads were allowed to settle, and the supernatant was collected and diluted to 10-fold. The fluorescence intensity of the supernatant was measured with a spectrophotometer (Hitachi F-2700, excitation wavelength: 494 nm, fluorescence wavelength: 521 nm).
A volume of 200 μl of PBS containing the beads was added to each tube, and 20 μl of each of the compositions was added. The mixture was agitated with a test tube mixer for 12 minutes. The beads were allowed to settle, and the supernatant was removed. The beads were washed with PBS, and 200 μl of methanol was added to elute oil red from the beads. The absorbance of the oil red solution in methanol was measured at 510 nm with an ultraviolet spectrophotometer (Shimadzu UV-1200). The relative amount of the pigment of Example 14 or Comparative Example 4 bound to the beads was calculated, with the obtained value of an oil red solution (Comparative Example 5) taken as 1.
A volume of 200 μl of PBS containing the beads was added to each tube, and 20 μl of each of the compositions was added. The mixture was agitated with a test tube mixer for 12 minutes. The beads were allowed to settle, and the supernatant was removed. The beads were washed with PBS, and 200 μl of methanol was added to elute tocopherol from the beads. The amount of tocopherol was measured by HPLC (Shimadzu LC-10A series). The relative amount of tocopherol of Example 15 or Comparative Example 6 bound to the beads was calculated, with the obtained value of a tocopherol solution (Comparative Example 7) taken as 1.
A volume of 200 μl of PBS containing the beads was added to each tube, and 20 μl of each of the compositions was added. The mixture was agitated with a test tube mixer for 12 minutes. The beads were allowed to settle, and the supernatant was removed. The beads were washed with PBS, and 200 μl of hexane was added to elute DHA from the beads. The amount of DHA was measured by gas chromatography (Shimadzu GC-2014 series).
The relative amount of DHA of Example 16 or Comparative Example 8 bound to the beads was calculated, with the obtained value of a DHA solution (Comparative Example 9) taken as 1.
GC was used for the analysis of eicosapentaenoic acid and linoleic acid. […] An atomic absorption spectrophotometer was used for the analysis of zinc gluconate, copper gluconate, and iron citrate.
The calculated value was expressed by the symbols A, B and C. The affinities of the physiologically active substances were assessed by comparing the cases where each physiologically active substance was emulsified with a sucrose fatty acid ester or the sophorolipid and where each of the physiologically active substances was used alone.

Iron citrate
Relative amount of physiologically active substance bound to the beads, Example (sophorolipid): B (affinity of not less than 2.0-fold and less than 5.0-fold)
Relative amount of physiologically active substance bound to the beads, Comparative Example (sucrose fatty acid ester): C (affinity of less than 2.0-fold)

Zinc gluconate
Relative amount of physiologically active substance bound to the beads, Example (sophorolipid): B (affinity of not less than 2.0-fold and less than 5.0-fold)
Relative amount of physiologically active substance bound to the beads, Comparative Example (sucrose fatty acid ester): C (affinity of less than 2.0-fold)

Copper gluconate
Relative amount of physiologically active substance bound to the beads, Example (sophorolipid): B (affinity of not less than 2.0-fold and less than 5.0-fold)
Relative amount of physiologically active substance bound to the beads, Comparative Example (sucrose fatty acid ester): C (affinity of less than 2.0-fold)
